Common to all, as to details: stereoisomer not certain
Series [1] is described as follows: RP, Waters ACQUITY UPLC BEH C18, 100 × 2.1 mm, 1.7 µm, 0.1 mL/min, estimated dead time 2.2 min; A: water + 0.045% formic acid + 0.11% ammonium hydroxide, pH 7; B: methanol; gradient (min/%B) 0/5 5/5 25/95 25.1/100 35/100 35.1/5 45/5.
Series [2] is described as follows: RP, Waters CORTECS T3, 100 × 2.1 mm, 2.7 µm, 0.2 mL/min, estimated dead time 1.1 min; A: water + 0.045% formic acid + 0.11% ammonium hydroxide, pH 7; B: methanol; gradient (min/%B) 0/5 5/5 25/95 25.1/100 35/100 35.1/5 45/5.
Series [3] can be described thus: RP, Waters CORTECS T3, 100 × 2.1 mm, 2.7 µm, 0.3 mL/min, estimated dead time 0.73 min; A: water + 0.1% formic acid, pH 3; B: methanol + 0.1% formic acid, pH 3; gradient (min/%B) 0/0 1/0 6/5 30/100 35/100 35.1/0 40/0.
A short description of series [4]: RP, Waters ACQUITY UPLC BEH C18, 100 × 2.1 mm, 1.7 µm, 0.2 mL/min, estimated dead time 1.1 min; A: water + 0.025% formic acid + 20 mM ammonium acetate + 0.055% ammonium hydroxide, pH 7; B: methanol; gradient (min/%B) 0/5 5/5 25/100 30/100 30.1/5 35/5.
Series [5] in a line: RP, Thermo Scientific Hypercarb, 150 × 2.1 mm, 5 µm, 0.1 mL/min, estimated dead time 3.3 min; A: water + 0.1% formic acid, pH 3; B: methanol + 0.1% formic acid, pH 3; gradient (min/%B) 0/5 5/5 20/100 35/100 35.1/5 45/5.
Series [6] can be described thus: RP, Waters CORTECS T3, 100 × 2.1 mm, 2.7 µm, 0.25 mL/min, estimated dead time 0.88 min; A: water + 0.1% formic acid, pH 3; B: methanol + 0.1% formic acid, pH 3; gradient (min/%B) 0/0 1/0 6/5 30/100 35/100 35.1/0 40/0.
A short description of series [7]: RP, Waters CORTECS T3, 100 × 2.1 mm, 2.7 µm, 0.15 mL/min, estimated dead time 1.5 min; A: water + 0.1% formic acid, pH 3; B: methanol + 0.1% formic acid, pH 3; gradient (min/%B) 0/0 1/0 6/5 30/100 35/100 35.1/0 40/0.
A short description of series [8]: RP, Waters CORTECS T3, 100 × 2.1 mm, 2.7 µm, 0.3 mL/min, estimated dead time 0.73 min; A: water + 0.1% formic acid, pH 3; B: methanol + 0.1% formic acid, pH 3; gradient (min/%B) 0/0 5/0 25/100 30/100 30.1/0 35/0.
Series [9] can be described thus: RP, Waters ACQUITY UPLC BEH C18, 100 × 2.1 mm, 1.7 µm, 0.1 mL/min, estimated dead time 2.2 min; A: water + 0.1% formic acid, pH 3; B: methanol + 0.1% formic acid, pH 3; gradient (min/%B) 0/5 5/5 25/100 30/100 30.1/5 35/5.
The nature of series [10]: HILIC, Merck SeQuant ZIC-HILIC, 150 × 2.1 mm, 5 µm, 0.75 mL/min, estimated dead time 0.44 min; A: water + 0.1% acetic acid + 10 mM ammonium acetate, pH 4; B: 5% water + 95% acetonitrile + 0.1% acetic acid + 10 mM ammonium acetate, pH 4; gradient (min/%B) 0/95 5/95 20/57 25/57 30/95 40/95.
A short description of series [11]: RP, Waters CORTECS T3, 100 × 2.1 mm, 2.7 µm, 0.1 mL/min, estimated dead time 2.2 min; A: water + 0.1% formic acid, pH 3; B: methanol + 0.1% formic acid, pH 3; gradient (min/%B) 0/5 5/5 25/95 25.1/100 35/100 35.1/5 45/5.
Series [12] in a line: RP, Waters CORTECS T3, 100 × 2.1 mm, 2.7 µm, 0.2 mL/min, estimated dead time 1.1 min; A: water + 0.1% formic acid, pH 3; B: methanol + 0.1% formic acid, pH 3; gradient (min/%B) 0/0 1/0 6/5 30/100 35/100 35.1/0 40/0.
Series [13] is described as follows: RP, Waters ACQUITY UPLC BEH C18, 100 × 2.1 mm, 1.7 µm, 0.2 mL/min, estimated dead time 1.1 min; A: water + 0.1% formic acid, pH 3; B: methanol + 0.1% formic acid, pH 3; gradient (min/%B) 0/5 5/5 25/100 30/100 30.1/5 35/5.
Series [14] is described as follows: RP, Waters CORTECS T3, 100 × 2.1 mm, 2.7 µm, 0.3 mL/min, estimated dead time 0.73 min; A: water + 0.1% formic acid, pH 3; B: methanol + 0.1% formic acid, pH 3; gradient (min/%B) 0/5 5/5 25/95 25.1/100 35/100 35.1/5 45/5.
A short description of series [15]: RP, Waters CORTECS T3, 100 × 2.1 mm, 2.7 µm, 0.2 mL/min, estimated dead time 1.1 min; A: water + 0.1% formic acid, pH 3; B: methanol + 0.1% formic acid, pH 3; gradient (min/%B) 0/5 5/5 25/95 25.1/100 35/100 35.1/5 45/5.

Turning to `CCCCCCCCC=CCCCCCCCC(=O)NC(COP(=O)([O-])OCC[N+](C)(C)C)C(O)C=CCCCCCCCCCCCCC` (stereo not given) [SPHINGOMYELIN (d36:2)], the LC retention time is 37.5 min in series [1] and 28.7 min in series [2].

As to `Nc1ccnc(=O)[nH]1` [CYTOSINE], the LC retention time is 0.9 min in series [3], 1.44 min in series [4], 13.9 min in [5] and 1.06 min in [6].

`NC(N)=NCCCC(=O)O` [4-GUANIDINOBUTANOATE]: the LC retention time in [7] is 1.8 min; in series [8] it was 0.91 min; in [3], 0.9 min; in series [4], 1.39 min; in series [5], 13 min; in series [9], 2.71 min. In series [6], the LC retention time is 1.06 min.

`CN1CC(=O)NC1=N` [CREATININE]: the LC retention time in series [4] was 1.39 min; in series [5], 4.94 min; in series [6], 1.06 min.

For the compound `Cn1cncc1CCN` [3-METHYLHISTAMINE], the LC retention time in series [1] was 3.44 min; in [4], 1.81 min; in series [2] it was 1.73 min; in [5], 4.64 min.

As to `Cn1cncc1CC(N)C(=O)O` [N(PAI)-METHYL-L-HISTIDINE], the LC retention time is 1.88 min in series [4] and 4.77 min in series [5].

As for `N[C@@H](Cc1ccc(O)cc1)C(=O)O` [L-TYROSINE], the values for the LC retention time in series [1], in [2] and in series [5] were 10.2 min, 5.83 min and 24.8 min, respectively.

Turning to `OCC(O)c1ccc(O)c(O)c1` (stereo not given) [3,4-DIHYDROXYPHENYL GLYCOL], the LC retention time in series [10] is 4.12 min.

Turning to `Cc1cnc(=O)[nH]c1N` [5-METHYLCYTOSINE], the LC retention time in series [3] was 0.9 min; in series [4], 2.21 min; in series [2], 1.35 min; in series [5] it was 16.9 min; in series [9], 2.71 min; in [6], 1.06 min.

`O=C(O)CCCC(=O)C(=O)O` [2-OXOADIPATE]: the LC retention time in series [10] was 12.9 min.

For the compound `CC=CC=CC(=O)O` [SORBATE], the LC retention time in series [11] is 4.88 min.

In the case of `CN=C(N)N` [METHYLGUANIDINE], the LC retention time was 1.39 min in series [4], 4.05 min in series [5] and 1.06 min in [6].

On to `CC(=O)NC1C(O)CC(O)(C(=O)O)OC1C(O)C(O)CO` (stereo not given) [N-ACETYLNEURAMINATE], for which the LC retention time in series [10] was 12.9 min.

Regarding `NCCc1cnc[nH]1` [HISTAMINE], the LC retention time in series [1] is 3.13 min; in [4], 1.44 min; in series [2], 1.54 min; in series [5], 4.61 min.

In the case of `Cn1cnc(=N)c2[nH]cnc21` [3-METHYLADENINE], the LC retention time in [1] was 2.75 min; in series [7] it was 1.78 min; in series [8] it was 0.89 min; in series [4], 3.62 min; in [2], 3.8 min; in [5] it was 24.5 min. Moreover, the LC retention time in series [9] is 2.69 min; in series [6], 1.09 min; in [12], 1.34 min.

As to `O=C(O)C(O)c1ccc(O)c(O)c1` (stereo not given) [DIHYDROXYMANDELIC ACID], the LC retention time in [10] was 4.4 min.

Consider `COc1cc(CCN)ccc1O` [3-METHOXYTYRAMINE], for which the LC retention time in [1] was 9.22 min; in series [2] it was 4.87 min; in series [5], 20.5 min.

With `Cc1ncc(C[n+]2csc(CCOP(=O)(O)O)c2C)c(N)n1` [THIAMINE MONOPHOSPHATE], the LC retention time in [1] is 3.87 min; in series [7], 1.78 min; in series [8] it was 0.89 min; in series [4] it was 1.42 min; in series [5], 18 min.

Turning to `Nc1ccccc1O` [2-AMINOPHENOL], the LC retention time in [11] is 2.8 min.

On to `O=C(O)C=Cc1cnc[nH]1` [UROCANATE], for which the LC retention time was 1.8 min in series [7]; 1.36 min in series [13]; 0.91 min in series [8]; 0.9 min in series [3]; 1.39 min in [4]; 2.71 min in series [9]. For the same compound, in series [6], the LC retention time was 1.06 min.

`c1ccc2ncccc2c1` [QUINOLINE]: the LC retention time is 16.1 min in series [1], 11.7 min in [2] and 4.84 min in series [5].

In the case of `NCCCCN=C(N)N` [AGMATINE], the LC retention time in series [1] was 3.67 min; in series [4], 1.44 min; in series [2], 1.58 min.

On to `N[C@@H](CCOC(=O)CCC(=O)O)C(=O)O` [O-SUCCINYL-L-HOMOSERINE], for which the LC retention time in [7] was 1.83 min; in [14], 0.9 min; in series [8], 0.93 min; in series [3], 0.92 min; in series [5] it was 16.2 min; in series [9], 2.74 min. For the same compound, the LC retention time is 1.09 min in [6] and 1.34 min in [12].

With `CCCCCCCCCCCCCC(=O)OCC(O)CO` (racemic) [RAC-GLYCEROL 1-MYRISTATE], the LC retention time in series [1] is 29.1 min; in series [2] it was 25.4 min; in series [9], 28.2 min.

For `Cc1ncc(CO)c(CN)c1O` [PYRIDOXAMINE], the LC retention time in series [1] was 2.75 min; in [4], 1.8 min; in series [2] it was 1.35 min; in series [5], 16.2 min.

Regarding `O=c1[nH]c(=O)c2ncn(C3OC(CO)C(O)C3O)c2[nH]1` (stereo not given) [XANTHOSINE], the LC retention time was 11.9 min in series [15] and 11.6 min in [10].

Consider `C[n+]1cccc(C(N)=O)c1` [1-METHYLNICOTINAMIDE], for which the LC retention time was 1.35 min in series [4] and 4.94 min in [5].

Take `CCC=CCC1C(=O)CCC1CC(=O)OC` (stereo not given) [METHYL JASMONATE]: the LC retention time in series [1] was 23.9 min; in series [7], 24 min; in series [11], 23.6 min; in series [4], 20 min; in series [2] it was 20.3 min; in series [9] it was 23.2 min.

For `NC(=O)CCCCC1CCSS1` (stereo not given) [LIPOAMIDE], the LC retention time in series [1] is 20 min; in series [2], 16 min.

`Cc1ncc(C[n+]2csc(CCO)c2C)c(N)n1` [THIAMINE]: the LC retention time in series [7] is 1.78 min; in series [8] it was 0.89 min; in [4], 3.78 min; in [5], 19.1 min.

The values are drawn from the RepoRT retention time repository (doi:10.1016/j.jchromb.2020.122105).
